Measurements from ChEMBL document CHEMBL4706569, “Hydroxy-corrole and its gallium(III) complex as new photosensitizer for photodynamic therapy against breast carcinoma” (Eur J Med Chem, 2020).
Values belong to the compound of their own block, whether it stands above or below them. The source made the active and inactive calls. The rule behind the calls is not given here.

What was measured:
[1] = Absorption property of the compound in DMF assessed as soret band wavelength molar absorption coefficient at 1 uM by UV-visible spectrophotometric method; format: physicochemical
[2] = tested on: MDA-MB-231; assay: Phototoxicity against human MDA-MB-231 cells assessed as reduction in cell viability preincubated for 4 hrs followed by irradiation with 0.3 W/cm2 of 625 +/- 2 nanometer LED light for 1 hr and measured after 42 hrs by MTT assay; format: functional, cell-based; conditions: MDA-MB-231, light or radiation study
[3] = Phototoxicity index, ratio of IC50 for cytotoxicity against mouse 4T1 cells measured under dark condition to IC50 for phototoxicity against mouse 4T1 cells upon LED light irradiation
[4] = tested on: 4T1; assay: Phototoxicity against mouse 4T1 cells assessed as reduction in cell viability preincubated for 4 hrs followed by irradiation with 0.3 W/cm2 of 625 +/- 2 nanometer LED light for 1 hr and measured after 42 hrs by MTT assay; format: functional, cell-based; conditions: 4T1, light or radiation study
[5] = tested on: HUVEC; assay: Phototoxicity against HUVEC assessed as reduction in cell viability preincubated for 4 hrs followed by irradiation with 0.3 W/cm2 of 625 +/- 2 nanometer LED light for 1 hr and measured after 42 hrs by MTT assay; format: cell-based; conditions: Homo sapiens, light or radiation study
[6] = Selectivity index, ratio of IC50 for HUVEC in presence of light irradiation to IC50 for human MDA-MB-231 cells in presence of light irradiation; format: toxicity; conditions: HUVEC and MDA-MB-231 cells, read-out: Ratio IC50
[7] = Dark toxicity in HUVEC assessed as reduction in cell viability by MTT assay; format: cell-based; conditions: human
[8] = Absorption property of the compound in DMF assessed as soret band absorption wavelength at 1 uM by UV-visible spectrophotometric method; format: physicochemical
[9] = Phototoxicity index, ratio of IC50 for cytotoxicity against HUVEC measured under dark condition to IC50 for phototoxicity against HUVEC upon LED light irradiation; conditions: human, read-out: Ratio IC50
[10] = Absorption property of the compound in DMF assessed as Q band absorption wavelength at 1 uM by UV-visible spectrophotometric method; format: physicochemical
[11] = Absorption property of the compound in DMF assessed as soret band molar extinction coefficient at 1 uM by UV-visible spectrophotometric method; format: physicochemical
[12] = Induction of singlet oxygen generation in DMF solution assessed as singlet oxygen quantum yield at 1 uM irradiated with 625 +/- 2 nanometer laser light by DPBF-based assay; format: functional
[13] = Phototoxicity index, ratio of IC50 for cytotoxicity against human MDA-MB-231 cells measured under dark condition to IC50 for phototoxicity against human MDA-MB-231 cells upon LED light irradiation
[14] = Absorption property of the compound in DMF assessed as Q band molar extinction coefficient at 1 uM by UV-visible spectrophotometric method; format: physicochemical
[15] = Absorption property of the compound in DMF assessed as soret band molar attenuation coefficient at 1 uM by UV-visible spectrophotometric method; format: physicochemical
[16] = Dark toxicity in mouse 4T1 cells assessed as reduction in cell viability by MTT assay; format: cell-based
[17] = Dark toxicity in human MDA-MB-231 cells assessed as reduction in cell viability by MTT assay; format: cell-based
[18] = Drug localization in lysosome of human MDA-MB-231 cells at 20 uM incubated for 4 hrs by Lyso-tracker dye based confocal laser scanning microscopy; format: ADME, subcellular; conditions: mda-mb-231, 4 h
[19] = tested on: MDA-MB-231; assay: Induction of apoptosis in human MDA-MB-231 cells assessed as necrotic cells at 2.5 uM under dark condition by annexin V-FITC/PI based flow cytometric analysis (reference value: 0.36 %); format: functional
[20] = tested on: MDA-MB-231; assay: Induction of apoptosis in human MDA-MB-231 cells assessed as early apoptotic cells at 2.5 uM under dark condition by annexin V-FITC/PI based flow cytometric analysis (reference value: 0 %); format: functional
[21] = tested on: MDA-MB-231; assay: Induction of apoptosis in human MDA-MB-231 cells assessed as necrotic cells at 2.5 uM preincubated for 4 hrs followed by 625 +/- 2 nanometer LED light irradiation for 1 hr and measured after 18 hrs by annexin V-FITC/PI based flow cytometric analysis (reference value: 0.41 %); format: functional; conditions: time 23 hrs
[22] = tested on: MDA-MB-231; assay: Induction of mitochondrial depolarization in human MDA-MB-231 cells at 2.5 uM preincubated for 4 hrs followed by 625 +/- 2 nanometer LED light irradiation for 1 hr and measured after 18 hrs by JC1 staining based fluorescence microscopy; format: functional, cell-based; conditions: time 23.0 hrs
[23] = tested on: MDA-MB-231; assay: Induction of apoptosis in human MDA-MB-231 cells assessed as late apoptotic cells at 2.5 uM preincubated for 4 hrs followed by 625 +/- 2 nanometer LED light irradiation for 1 hr and measured after 18 hrs by annexin V-FITC/PI based flow cytometric analysis (reference value: 1.34 %); format: functional; conditions: time 23 hrs
[24] = Drug uptake in human MDA-MB-231 cells at 10 uM by flow cytometric analysis; format: ADME, cell-based; conditions: mda-mb-231, 10 µM, TDE = time-dependent effect
[25] = tested on: MDA-MB-231; assay: Induction of cell cycle arrest in human MDA-MB-231 cells assessed as accumulation at S phase at 5 uM measured after 24 hrs under dark condition by RNase A/propidium iodide staining based flow cytometry analysis (reference value: 24.8 %); format: functional
[26] = tested on: MDA-MB-231; assay: Induction of apoptosis in human MDA-MB-231 cells assessed as viable cells at 2.5 uM preincubated for 4 hrs followed by 625 +/- 2 nanometer LED light irradiation for 1 hr and measured after 18 hrs by annexin V-FITC/PI based flow cytometric analysis (reference value: 98.0 %); format: functional; conditions: MDA-MB-231, light or radiation study, time 23 hrs, read-out: Activity
[27] = Drug uptake in human MDA-MB-231 cells at 10 uM incubated for 4 hrs by Hoechst 33342 staining based fluorescence microscopy; format: ADME, cell-based; conditions: mda-mb-231, 4 h
[28] = tested on: MDA-MB-231; assay: Induction of apoptosis in human MDA-MB-231 cells assessed as late apoptotic cells at 2.5 uM under dark condition by annexin V-FITC/PI based flow cytometric analysis (reference value: 0.67 %); format: functional
[29] = Drug localization in mitochondria of human MDA-MB-231 cells at 20 uM incubated for 4 hrs by Mito-tracker dye based confocal laser scanning microscopy; format: ADME; conditions: mda-mb-231, 4 h
[30] = tested on: MDA-MB-231; assay: Induction of apoptosis in human MDA-MB-231 cells assessed as early apoptotic cells at 2.5 uM preincubated for 4 hrs followed by 625 +/- 2 nanometer LED light irradiation for 1 hr and measured after 18 hrs by annexin V-FITC/PI based flow cytometric analysis (reference value: 0.27 %); format: functional; conditions: time 23 hrs
[31] = tested on: MDA-MB-231; assay: Induction of apoptosis in human MDA-MB-231 cells assessed as viable cells at 2.5 uM under dark condition by annexin V-FITC/PI based flow cytometric analysis (reference value: 99.0 %); format: functional; conditions: read-out: Activity
[32] = tested on: MDA-MB-231; assay: Induction of cell cycle arrest in human MDA-MB-231 cells assessed as accumulation at G2 phase at 5 uM measured after 24 hrs under dark condition by RNase A/propidium iodide staining based flow cytometry analysis (reference value: 24.4 %); format: functional
[33] = tested on: MDA-MB-231; assay: Induction of cell cycle arrest in human MDA-MB-231 cells assessed as accumulation at S phase at 5 uM preincubated with 625 +/- 2 nanometer LED light irradiation for 1 hrs and measured after 24 hrs by RNase A/propidium iodide staining based flow cytometry analysis (reference value: 29.0 %); format: functional; conditions: time 25 hrs
[34] = tested on: MDA-MB-231; assay: Induction of cell cycle arrest in human MDA-MB-231 cells assessed as accumulation at sub-G1 phase at 5 uM measured after 24 hrs under dark condition by RNase A/propidium iodide staining based flow cytometry analysis (reference value: 2.56 %); format: functional
[35] = tested on: MDA-MB-231; assay: Induction of mitochondrial depolarization in human MDA-MB-231 cells at 2.5 uM in dark by JC1 staining based fluorescence microscopy; format: functional, cell-based
[36] = tested on: MDA-MB-231; assay: Induction of ROS generation in human MDA-MB-231 cells at 2.5 uM preincubated for 4 hrs followed by 625 +/- 2 nanometer LED light irradiation for 1 hr and measured after 18 hrs by DCFH-DA staining based fluorescence microscopy; format: functional, cell-based; conditions: time 23.0 hrs
[37] = tested on: MDA-MB-231; assay: Induction of cell cycle arrest in human MDA-MB-231 cells assessed as accumulation at G1 phase at 5 uM preincubated with 625 +/- 2 nanometer LED light irradiation for 1 hrs and measured after 24 hrs by RNase A/propidium iodide staining based flow cytometry analysis (reference value: 43.6 %); format: functional; conditions: time 25 hrs
[38] = tested on: MDA-MB-231; assay: Induction of cell cycle arrest in human MDA-MB-231 cells assessed as accumulation at G1 phase at 5 uM measured after 24 hrs under dark condition by RNase A/propidium iodide staining based flow cytometry analysis (reference value: 47.5 %); format: functional
[39] = tested on: MDA-MB-231; assay: Induction of cell cycle arrest in human MDA-MB-231 cells assessed as accumulation at sub-G1 phase at 5 uM preincubated with 625 +/- 2 nanometer LED light irradiation for 1 hrs and measured after 24 hrs by RNase A/propidium iodide staining based flow cytometry analysis (reference value: 3.93 %); format: functional; conditions: time 25 hrs
[40] = tested on: MDA-MB-231; assay: Induction of cell cycle arrest in human MDA-MB-231 cells assessed as accumulation at G2 phase at 5 uM preincubated with 625 +/- 2 nanometer LED light irradiation for 1 hrs and measured after 24 hrs by RNase A/propidium iodide staining based flow cytometry analysis (reference value: 22.1 %); format: functional; conditions: time 25 hrs
[41] = tested on: MDA-MB-231; assay: Induction of ROS generation in human MDA-MB-231 cells at 2.5 uM in dark by DCFH-DA staining based fluorescence microscopy; format: functional, cell-based

- Activity [1]: 441 nm
- Activity [8]: 425 nm
- Activity [10]: 629 nm
- Activity [11]: 5.11 log
- Activity [14]: 4.57 log
- Activity [15]: 5.08 log
SMILES: Oc1ccccc1-c1c2nc(c(-c3c(F)c(F)c(F)c(F)c3F)c3ccc([nH]3)c3ccc([nH]3)c(-c3c(F)c(F)c(F)c(F)c3F)c3ccc1[nH]3)C=C2
- IC50 [2]: 5810 nM
- Ratio IC50 [3]: >217.39
- IC50 [4]: 460 nM
- IC50 [5]: 4.75 µM
- selectivity ratio [6]: 0.82
- IC50 [7]: > 100 µM
- selectivity ratio [9]: > 21.1
- Activity [12]: 0.45
- Ratio IC50 [13]: 8.75
- IC50 [16]: > 100 µM
- IC50 [17]: 50.8 µM

- Drug uptake [18]: Active
- Activity [1]: 443 nm
- Drug uptake [24]: Tde
- Drug uptake [27]: Active
- Drug uptake [29]: Active
- Activity [8]: 427 nm
- Activity [10]: 633 nm
- Activity [11]: 5.12 log
- Activity [14]: 4.62 log
- Activity [15]: 5.09 log
SMILES: Oc1ccc(-c2c3nc(c(-c4c(F)c(F)c(F)c(F)c4F)c4ccc([nH]4)c4ccc([nH]4)c(-c4c(F)c(F)c(F)c(F)c4F)c4ccc2[nH]4)C=C3)cc1
- Activity [19]: 0.72%
- Activity [20]: 0.013%
- IC50 [2]: 420 nM
- Activity [21]: 5.29%
- Activity [22]: Active
- Activity [23]: 30.1%
- Ratio IC50 [3]: >333.33
- IC50 [4]: 300 nM
- Activity [25]: 23.2%
- viability at 2.5 µM [26]: 64.5%
- IC50 [5]: 9.32 µM
- selectivity ratio [6]: 22.2
- Activity [28]: 1.01%
- IC50 [7]: > 100 µM
- Activity [30]: 0.095%
- viability at 2.5 µM [31]: 98.3%
- Activity [32]: 26.1%
- Activity [33]: 18.1%
- Activity [34]: 2.84%
- selectivity ratio [9]: > 10.9
- Activity [12]: 0.55
- Activity [35]: inactive
- Activity [36]: Active
- Ratio IC50 [13]: >238.1
- Activity [37]: 25.1%
- Activity [38]: 46.7%
- Activity [39]: 38.6%
- Activity [40]: 17.5%
- IC50 [16]: > 100 µM
- Activity [41]: inactive
- IC50 [17]: > 100 µM

- Activity [1]: 443 nm
- Activity [8]: 428 nm
- Activity [10]: 633 nm
- Activity [11]: 5.12 log
- Activity [14]: 4.61 log
- Activity [15]: 5.1 log
SMILES: Oc1cccc(-c2c3nc(c(-c4c(F)c(F)c(F)c(F)c4F)c4ccc([nH]4)c4ccc([nH]4)c(-c4c(F)c(F)c(F)c(F)c4F)c4ccc2[nH]4)C=C3)c1
- IC50 [2]: 1640 nM
- Ratio IC50 [3]: >175.44
- IC50 [4]: 570 nM
- IC50 [5]: 0.89 µM
- selectivity ratio [6]: 0.54
- IC50 [7]: > 100 µM
- selectivity ratio [9]: > 112
- Activity [12]: 0.46
- Ratio IC50 [13]: >60.98
- IC50 [16]: > 100 µM
- IC50 [17]: > 100 µM

SMILES: Oc1cccc(-c2c3nc(c(-c4cccc(O)c4)c4ccc([nH]4)c(-c4cccc(O)c4)c4nc(c(-c5cccc(O)c5)c5ccc2[nH]5)CC4)C=C3)c1 [TEMOPORFIN]
- IC50 [2]: 870 nM
- Ratio IC50 [3]: 760.2
- IC50 [4]: 50 nM
- IC50 [5]: 1.5 µM
- selectivity ratio [6]: 1.72
- IC50 [7]: > 100 µM
- selectivity ratio [9]: > 66.7
- Ratio IC50 [13]: 38.41
- IC50 [16]: 38 µM
- IC50 [17]: 33.4 µM
